Assays:
modified PQQGDH [1] = assay: Substrate specificity using glucose assay system (ferricyanide reduction, absorbance 420 nm); format: biochemical
Description: D-glucose+ferricyanide ion+PQQGDH D-glucono-1,5-lactone+ferrocyanide ion
Specificity to each substrate can be determined by changing D-glucose to other saccharides. The presence of the ferrocyanide ion produced by reduction of the ferricyanide ion was confirmed by measuring the decrease of absorbance at a wavelength of 420 nm by spectrophotometry.
A. […]
B. Potassium ferricyanide solution: 50 mM (0.165 g potassium ferricyanide (molecular weight: 329.25) dissolved in 10 ml of distilled water)
C. PQQGDH solution: 31000 U/ml (approx. 128 mg PQQGDH (Toyobo: GLD-331) dissolved in 5 ml of distilled water)
D. Substrate solution (D-glucose solution or maltose solution): 100 or 400 mM
• 1. The following reaction mixture was prepared in a light shielding bottle, and stored on ice (prepared at use). 48.2 mL of each buffer solution (pH6.5) (A) • 4.0 mL of potassium ferricyanide solution (B) • 0.19 mL of (C) • 2. 2.65 ml of the reaction mixture and 0.3 ml of additive were placed in a test tube (plastic) and pre-warmed for 5 minutes at 37° C. • 3. 0.15 ml of substrate solution (D) were added and mixed gently. • 4. The reduction in the absorbance relative to water at 420 nm was recorded for 1 to 3 minutes with a spectrophotometer while maintaining at a temperature of 37° C., and the ΔOD per minute was calculated from the initial linear portion of the curve (ΔOD test). At the same time, the same procedure was carried out with the exception of adding distilled water instead of glucose solution followed by measurement of the blank (ΔOD blank).
The above-mentioned procedure was carried out at each of the predetermined concentrations shown in Tables 1 to 3 using as additives succinic acid, adipic acid, suberic acid, pimeric acid, potassium chloride, ammonium chloride, diammonium hydrogen citrate, malonic acid, L-lysine, taurine, 3,3-dimethylglutaric acid, malic acid, glutaric acid, calcium glycerate, amino-n-butyric acid, sodium glycolate, sodium α-ketoglutarate, fumaric acid, glycerin, glutamic acid and serine. And the procedure was also carried out for those not containing additives to assess the effects of additives.
Variation in absorbance per unit time was determined by calculating ΔOD/min(ΔOD test−ΔOD blank)
To evaluate whether activity had declined with respect to sugars other than glucose, the ΔOD/min (a) with D-glucose as the substrate solution and the ΔOD/min (b) with the other sugar in place of D-glucose as the substrate solution were measured, and the relative value ((b)/(a)×100) was calculated given 100 as the measurement value with glucose as the substrate.
In each of Tables 3 to 5, in the case the value of the ratio of measured values of maltose and glucose (maltose/glucose) relative to the control (control: no addition) is small, activity with respect to maltose during glucose measurement decreases.

modified PQQGDH [2] = assay: Maltose activity of glucose electrode loaded with modified PQQGDH (oxidation current, potassium ferricyanide mediator); format: biochemical, Acinetobacter baumannii strain NCIMB11517; conditions: solute 50 mM, pH 5.5; glucose or maltose 4 mM; 0.1 M potassium ferricyanide; +0.35 V; 25° C.
Description: 0.5 g of carbon graphite were placed in a mortar followed by the addition of 0.3 ml of liquid paraffin and kneading with a pestle for 30 minutes to produce a carbon paste. The resulting carbon paste was spread onto a platinum electrode followed by the addition of 10 μl of the modified PQQGDH solution (2,000 U/ml) produced in Example 2 and air drying for 30 minutes at room temperature. A cut cellulose semi-permeable membrane (molecular weight: 8,000) was placed over the dried enzyme electrode and the semi-permeable membrane was immobilized with plastic O-rings. The glucose electrode produced in this manner was then used after preliminarily immersing in the cold reaction solvent for 30 minutes.
The substances listed in Table 1 were used as solutes, and buffers were respectively prepared having a final concentration of 50 mM (pH 5.5). Each of the solvents contained an activator/stabilizer in the form of calcium chloride at 1 mM and surfactant in the form of 0.1% Triton X-100 in addition to the solute listed in Table 1. Potassium ferricyanide was dissolved in each of the produced solvents to a concentration of 0.1 M to prepare reaction solutions.
50 mM phosphoric acid or pimeric acid solution containing 1 mM calcium chloride and 0.1% Triton X-100 (consisting of three types having pH values of 5.0, 6.0 and 7.0, respectively) were prepared. Maltose activity of the glucose electrode was investigated for each according to the method of Example 5.

modified PQQGDH [3] = assay: Substrate specificity using glucose assay system (ferricyanide reduction, absorbance 420 nm); format: biochemical; conditions: potassium phosphate buffer pH 7.0
[4] = glutaric acid buffer pH 7.0, reagent 0.1%, substrate 4.8 mM, control 0.86
[5] = glutaric acid buffer pH 7.0, reagent 0.1%, substrate 19.2 mM, control 0.94
[6] = glutaric acid buffer pH 7.0, reagent 1%, substrate 4.8 mM, control 0.86
[7] = glutaric acid buffer pH 7.0, reagent 1%, substrate 19.2 mM, control 0.94
[8] = phthalic acid buffer pH 7.0, reagent 0.5%, substrate 4.8 mM, control 0.72
[9] = phthalic acid buffer pH 7.0, reagent 0.5%, substrate 19.2 mM, control 0.75
[10] = phthalic acid buffer pH 7.0, reagent 1%, substrate 4.8 mM, control 0.72
[11] = phthalic acid buffer pH 7.0, reagent 1%, substrate 19.2 mM, control 0.75
[12] = phthalic acid buffer pH 7.0, reagent 2%, substrate 4.8 mM, control 0.72
[13] = phthalic acid buffer pH 7.0, reagent 2%, substrate 19.2 mM, control 0.75
[14] = potassium phosphate buffer pH 7.0, reagent 0.5%, substrate 19.2 mM, control 0.93
[15] = potassium phosphate buffer pH 7.0, reagent 1%, substrate 19.2 mM, control 0.93
[16] = reagent 0.5%, substrate 4.8 mM, control 0.85
[17] = reagent 1%, substrate 4.8 mM, control 0.85
[18] = reagent 2%, substrate 4.8 mM, control 0.85
[19] = reagent 2%, substrate 19.2 mM, control 0.93

SMILES: O=C([O-])C(O)CO.O=C([O-])C(O)CO.[Ca+2] (racemic) [Calcium DL-glycerate]
- Maltose/glucose ratio (modified PQQGDH [1]; glutaric acid buffer pH 7.0, reagent 0.33%, substrate 4.8 mM, control 0.86): 0.60
- Maltose/glucose ratio (modified PQQGDH [1]; glutaric acid buffer pH 7.0, reagent 0.33%, substrate 19.2 mM, control 0.94): 0.82

SMILES: O=C(O)CC(O)C(=O)O (racemic) [D,L-malic acid]
- Maltose Activity (%) (modified PQQGDH [2]): 18.9%
- Maltose/glucose ratio (modified PQQGDH [1]; [4]): 0.57
- Maltose/glucose ratio (modified PQQGDH [1]; [5]): 0.77
- Maltose/glucose ratio (modified PQQGDH [1]; [6]): 0.34
- Maltose/glucose ratio (modified PQQGDH [1]; [7]): 0.40

SMILES: O=C(O)CCC(=O)C(=O)O [2-ketoglutaric acid]
- Maltose Activity (%) (modified PQQGDH [2]): 19.3%

SMILES: CC(=O)O [Acetic acid, reference compound]
- Maltose Activity (%) (modified PQQGDH [2]): 35.5%

SMILES: O=C(O)CCCCC(=O)O [Adipic acid]
- Maltose Activity (%) (modified PQQGDH [2]): 20.7%
- Maltose/glucose ratio (modified PQQGDH [1]; [4]): 0.73
- Maltose/glucose ratio (modified PQQGDH [1]; [5]): 0.84
- Maltose/glucose ratio (modified PQQGDH [1]; [6]): 0.43
- Maltose/glucose ratio (modified PQQGDH [1]; [7]): 0.67
- Maltose/glucose ratio (modified PQQGDH [1]; phthalic acid buffer pH 7.0, reagent 0.05%, substrate 4.8 mM, control 0.72): 0.66
- Maltose/glucose ratio (modified PQQGDH [1]; phthalic acid buffer pH 7.0, reagent 0.05%, substrate 19.2 mM, control 0.75): 0.68
- Maltose/glucose ratio (modified PQQGDH [1]; phthalic acid buffer pH 7.0, reagent 0.1%, substrate 4.8 mM, control 0.72): 0.65
- Maltose/glucose ratio (modified PQQGDH [1]; phthalic acid buffer pH 7.0, reagent 0.1%, substrate 19.2 mM, control 0.75): 0.64
- Maltose/glucose ratio (modified PQQGDH [1]; phthalic acid buffer pH 7.0, reagent 0.2%, substrate 4.8 mM, control 0.72): 0.65
- Maltose/glucose ratio (modified PQQGDH [1]; phthalic acid buffer pH 7.0, reagent 0.2%, substrate 19.2 mM, control 0.75): 0.58

SMILES: Cl.N [Ammonium chloride]
- Maltose/glucose ratio (modified PQQGDH [1]; [6]): 0.56
- Maltose/glucose ratio (modified PQQGDH [1]; [7]): 0.71
- Maltose/glucose ratio (modified PQQGDH [1]; [8]): 0.60
- Maltose/glucose ratio (modified PQQGDH [1]; [9]): 0.67
- Maltose/glucose ratio (modified PQQGDH [1]; [10]): 0.57
- Maltose/glucose ratio (modified PQQGDH [1]; [11]): 0.59
- Maltose/glucose ratio (modified PQQGDH [1]; [12]): 0.52
- Maltose/glucose ratio (modified PQQGDH [1]; [13]): 0.52
- Maltose/glucose ratio (modified PQQGDH [1]; [14]): 0.91
- Maltose/glucose ratio (modified PQQGDH [1]; [15]): 0.84
- Maltose/glucose ratio (modified PQQGDH [3]; [16]): 0.72
- Maltose/glucose ratio (modified PQQGDH [3]; [17]): 0.58
- Maltose/glucose ratio (modified PQQGDH [3]; [18]): 0.43
- Maltose/glucose ratio (modified PQQGDH [3]; [19]): 0.70

SMILES: O=C(O)CC(O)(CC(=O)O)C(=O)O [Citric acid]
- Maltose Activity (%) (modified PQQGDH [2]): 23.4%

SMILES: N[C@H](CCC(=O)O)C(=O)O [D-glutamic acid]
- Maltose/glucose ratio (modified PQQGDH [1]; [4]): 0.73
- Maltose/glucose ratio (modified PQQGDH [1]; [5]): 0.89

SMILES: N.N.O=C(O)CC(O)(CC(=O)O)C(=O)O [Diammonium hydrogen citrate]
- Maltose/glucose ratio (modified PQQGDH [1]; [4]): 0.78
- Maltose/glucose ratio (modified PQQGDH [1]; [5]): 0.90
- Maltose/glucose ratio (modified PQQGDH [1]; [6]): 0.59
- Maltose/glucose ratio (modified PQQGDH [1]; [7]): 0.82
- Maltose/glucose ratio (modified PQQGDH [1]; [8]): 0.79
- Maltose/glucose ratio (modified PQQGDH [1]; [9]): 0.55
- Maltose/glucose ratio (modified PQQGDH [1]; [10]): 0.80
- Maltose/glucose ratio (modified PQQGDH [1]; [11]): 0.70
- Maltose/glucose ratio (modified PQQGDH [1]; [12]): 0.89
- Maltose/glucose ratio (modified PQQGDH [1]; [13]): 0.63
- Maltose/glucose ratio (modified PQQGDH [1]; [14]): 0.88
- Maltose/glucose ratio (modified PQQGDH [1]; [15]): 0.76
- activity with respect to maltose compared with the control (in words) (modified PQQGDH [1]; substrate concentration of 4.8 mM, in some cases): did not decrease
- Maltose/glucose ratio (modified PQQGDH [3]; [16]): 0.64
- Maltose/glucose ratio (modified PQQGDH [3]; [17]): 0.52
- Maltose/glucose ratio (modified PQQGDH [3]; [18]): 0.36
- Maltose/glucose ratio (modified PQQGDH [3]; [19]): 0.54

SMILES: O=C(O)/C=C/C(=O)O [Fumaric acid]
- Maltose/glucose ratio (modified PQQGDH [1]; [6]): 0.68
- Maltose/glucose ratio (modified PQQGDH [1]; [7]): 0.88

SMILES: O=C(O)CCCC(=O)O [Glutaric acid]
- Maltose Activity (%) (modified PQQGDH [2]): 22.1%
- Maltose/glucose ratio (modified PQQGDH [1]; [4]): 0.65
- Maltose/glucose ratio (modified PQQGDH [1]; [5]): 0.81
- Maltose/glucose ratio (modified PQQGDH [1]; [6]): 0.34
- Maltose/glucose ratio (modified PQQGDH [1]; [7]): 0.54
